Laboratory results published in patent US20220220075A1, “SOLID FORM OF AROMATIC COMPOUND AND PREPARATION METHOD THEREFOR” (Sichuan Kelun-Biotech Biopharmaceutical Co., Ltd., priority 2019, published 2022).

Assays:
[1] = tested on: HEK293 cells; conditions: statement in words; tests disclosed in WO2019105234A1; cited from earlier work
[2] = molecular target: hERG (Homo sapiens, UniProt Q12809); conditions: statement in words; tests disclosed in WO2019105234A1; cited from earlier work
[3] = High humidity stability test (purity by HPLC, XRPD); format: physicochemical; conditions: 25±2° C., 92.5% RH; for Purity: open dish
Description: (§1) In this experimental example, the chemical stability of crystalline form A was studied by high temperature and high humidity test.
(§2) Method for testing purity: high performance liquid chromatography (Chinese Pharmacopoeia, 2015 Edition, Four General Rules 0512) was used to test purify.
(§3) Chromatographic column: phenyl bonded silica gel was used as filler;
(§4) Mobile phase A: 5 mM ammonium acetate (pH 4.0);
(§5) Mobile phase B: Acetonitrile (containing 0.05% acetic acid);
(§6) Detection wavelength: 230 nm.
(§7) Elution condition: gradient elution.
The crystalline form A of the compound of Formula I was evenly spread into an open culture dish with a thickness of ≤5 mm, and placed in a constant temperature incubator at room temperature (25±2° C.) and relative humidity of 92.5% RH. […]

[4] = tested on: HepG2 cells; conditions: statement in words; tests disclosed in WO2019105234A1; cited from earlier work
[5] = Study on pharmacokinetics (PK) in rats; format: in vivo, male SD rats; conditions: PO, 5 mg/kg
Description: A sample of crystalline form A was administered to male SD rats by intragastric route (PO) to investigate its pharmacokinetic characteristics. The dose was 5 mg/kg, and 0.5% MC (methylcellulose sodium) was used as a solvent to prepare a suspension of crystalline form A. In the administration group, whole blood samples were collected before PO administration (0 h) and at time points of 0.083, 0.17, 0.25, 0.5, 1, 2, 4, 6, 8 and 24 hours after administration. The whole blood samples were anticoagulated with EDTA.K2, and plasma samples were obtained after centrifugation and stored at −80° C. for later testing. In this experiment, there were three animals in each group for parallel testing.
The plasma samples were treated by precipitating protein and then analyzed by LC-MS/MS. Using WinNonlin 6.3 software, the pharmacokinetic parameters was calculated by means of the non-compartmental model, and the results were shown in Table 1.

[6] = High temperature stability test (purity by HPLC, XRPD); format: physicochemical; conditions: 60° C.; for Purity: sealed glass bottle
Description: as §1, §2, §3, §4, §5, §6, §7
The crystalline form A was placed in a sealed and clean glass bottle, and then the glass bottle was placed in a 60° C. constant temperature drying oven, and samples were taken on the […] and the 30th day, respectively, to detect impurity contents, and the purity results were shown in Table 2.

[7] = molecular target: T1, PPAR δ (Homo sapiens, UniProt Q03181); conditions: statement in words; tests disclosed in WO2019105234A1; cited from earlier work
T1 sequence (Q03181 1-441): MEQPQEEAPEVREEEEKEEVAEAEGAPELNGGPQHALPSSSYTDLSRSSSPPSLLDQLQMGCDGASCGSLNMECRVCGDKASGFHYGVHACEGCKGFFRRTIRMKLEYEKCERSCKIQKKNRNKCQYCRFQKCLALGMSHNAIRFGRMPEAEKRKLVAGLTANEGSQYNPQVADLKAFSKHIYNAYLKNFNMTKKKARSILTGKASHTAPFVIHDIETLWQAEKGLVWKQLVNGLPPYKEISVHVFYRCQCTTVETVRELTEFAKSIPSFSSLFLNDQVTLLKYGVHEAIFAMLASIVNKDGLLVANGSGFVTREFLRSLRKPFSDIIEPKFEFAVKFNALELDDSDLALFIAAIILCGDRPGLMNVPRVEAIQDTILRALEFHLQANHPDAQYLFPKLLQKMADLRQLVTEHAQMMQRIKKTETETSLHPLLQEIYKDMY

[8] = rat, male SD rats, suspension in 0.5% MC, plasma

Sequence of hERG (Q12809 whole entry): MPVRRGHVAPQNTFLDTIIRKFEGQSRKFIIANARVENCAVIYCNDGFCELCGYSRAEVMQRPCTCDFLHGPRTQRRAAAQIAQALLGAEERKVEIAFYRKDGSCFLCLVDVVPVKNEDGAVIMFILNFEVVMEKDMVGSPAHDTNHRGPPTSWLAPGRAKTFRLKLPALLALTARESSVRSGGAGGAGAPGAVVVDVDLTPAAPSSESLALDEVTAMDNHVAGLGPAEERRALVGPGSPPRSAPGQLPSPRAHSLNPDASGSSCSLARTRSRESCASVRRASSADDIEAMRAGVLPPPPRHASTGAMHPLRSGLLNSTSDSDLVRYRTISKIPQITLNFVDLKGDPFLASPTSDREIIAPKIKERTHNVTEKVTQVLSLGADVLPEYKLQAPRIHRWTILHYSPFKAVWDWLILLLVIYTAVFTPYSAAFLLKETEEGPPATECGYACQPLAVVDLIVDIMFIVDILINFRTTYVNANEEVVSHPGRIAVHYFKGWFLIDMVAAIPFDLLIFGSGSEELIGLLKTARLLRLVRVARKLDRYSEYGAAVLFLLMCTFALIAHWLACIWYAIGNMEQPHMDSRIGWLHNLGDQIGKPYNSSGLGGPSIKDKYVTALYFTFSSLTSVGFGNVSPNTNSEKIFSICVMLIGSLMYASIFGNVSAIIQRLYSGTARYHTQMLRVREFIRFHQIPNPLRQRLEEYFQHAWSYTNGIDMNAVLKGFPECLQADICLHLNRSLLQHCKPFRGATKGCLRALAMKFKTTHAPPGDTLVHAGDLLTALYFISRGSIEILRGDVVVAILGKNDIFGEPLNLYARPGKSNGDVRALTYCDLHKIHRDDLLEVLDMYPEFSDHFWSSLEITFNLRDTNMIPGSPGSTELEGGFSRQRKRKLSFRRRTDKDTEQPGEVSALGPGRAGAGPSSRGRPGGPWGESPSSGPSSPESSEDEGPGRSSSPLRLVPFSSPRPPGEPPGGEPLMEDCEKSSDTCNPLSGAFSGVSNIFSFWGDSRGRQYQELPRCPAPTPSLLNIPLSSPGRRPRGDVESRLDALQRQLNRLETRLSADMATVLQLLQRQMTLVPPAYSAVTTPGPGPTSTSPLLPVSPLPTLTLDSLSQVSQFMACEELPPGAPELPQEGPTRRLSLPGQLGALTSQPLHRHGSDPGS

- change of crystalline form by XRPD ([3]; after 30 days of storage): did not change
- Purity ([3]; 0th day): 99.51%
- Purity ([3]; 10th day): 99.53%
- Purity ([3]; 30th day): 99.54%
- change of purity under high humidity conditions ([3]; up to 30 days): no significant change
- exposure in rat plasma [5]: better exposure
- AUC(0-t) [5, 8]: 777 ng·h/mL
- Cmax [5, 8]: 522 ng/mL
- change of crystalline form by XRPD ([6]; after 30 days of storage): did not change
- Purity ([6]; 0th day): 99.51%
- Purity ([6]; 10th day): 99.53%
- Purity ([6]; 30th day): 99.54%
- change of purity under high temperature conditions ([6]; up to 30 days): no significant change
Compound: COc1nc2ccccc2cc1C(=O)/C=C/c1cc(C)c(OC(C)(C)C(=O)O)c(C)c1 [crystalline form A, (E)-2-(4-(3-(2-methoxyquinolin-3-yl)-3-oxo-1-propen-1-yl)-2,6-dimethylphenoxy)-2-methyl-propionic acid]
- toxicity to HEK293 cells [1]: low toxicity
- inhibitory effect on hERG [2]: no obvious inhibitory effect
- toxicity to HepG2 cells [4]: low toxicity
- agonistic effect on PPAR δ [7]: obvious agonistic effect
